What was measured:
Type in all cases: in vivo
[1] = system: oat, wild (wild oat, Avena fatua); assay: Test C greenhouse herbicide test, postemergence; conditions: Postemergence
Outline: (§1)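 Greenhouse postemergence spray on plants 2–18 cm tall; response judged visually after 13–15 d relative to untreated controls using a 0 (none) to 100 (full control) scale.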

kochia (Kochia scoparia) = assay: Test C greenhouse herbicide test, postemergence; conditions: Postemergence
Outline: as §1

[2] = system: crabgrass, large (large crabgrass, Digitaria sanguinalis); assay: Test C greenhouse herbicide test, pre- and postemergence
Outline: (§2)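 Percent-control ratings (0 none, 100 complete) came from visual comparison with controls held alongside in the greenhouse for 13–15 d. Treatments covered soil application at sowing and foliar application to young plants 2–18 cm tall.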

[3] = system: blackgrass (Alopecurus myosuroides); assay: as above
Outline: as §2

[4] = system: pigweed (Amaranthus retroflexus); assay: as above
Outline: as §2

[5] = system: oilseed rape (Brassica napus); assay: as above
Outline: as §2

[6] = system: ryegrass, Italian (Italian ryegrass, Lolium multiflorum); assay: as above
Outline: as §2

[7] = system: johnsongrass (Sorghum halepense); assay: as above
Outline: as §2

corn (Zea mays) = assay: as above
Outline: as §2

[8] = system: foxtail, giant (giant foxtail, Setaria faberii); assay: as above
Outline: as §2

[9] = system: waterhemp (common waterhemp, Amaranthus rudis); assay: as above
Outline: as §2

[10] = system: lambsquarters (Chenopodium album); assay: as above
Outline: as §2

[11] = system: ragweed (common ragweed, Ambrosia elatior); assay: as above
Outline: as §2

[12] = system: morningglory (Ipomoea coccinea); assay: as above
Outline: as §2

[13] = system: velvetleaf (Abutilon theophrasti); assay: as above
Outline: as §2

soybean (Glycine max) = assay: as above
Outline: as §2

[14] = 31 g ai/ha, scale 0 to 100 (0 no effect, 100 complete control)
[15] = 125 g ai/ha, scale 0 to 100, 0 is no effect, 100 is complete control
[16] = 250 g ai/ha, scale 0 to 100, 0 no effect, 100 complete control, 13 to 15 d
[17] = Postemergence, 31 g ai/ha, scale 0 to 100 (0 no effect, 100 complete control)
[18] = Postemergence, 125 g ai/ha, scale 0 to 100, 0 is no effect, 100 is complete control
[19] = Postemergence, 250 g ai/ha, scale 0 to 100, 0 no effect, 100 complete control, 13 to 15 d
[20] = Preemergence, 31 g ai/ha, scale 0 to 100, 0 is no effect, 100 is complete control
[21] = Preemergence, 62 g ai/ha, scale 0 to 100, 0 is no effect, 100 is complete control
[22] = Preemergence, 125 g ai/ha, scale 0 to 100, 0 is no effect, 100 is complete control
[23] = Preemergence, 250 g ai/ha, scale 0 to 100 (0 no effect, 100 complete control)
[24] = postemergence, 62 g ai/ha, scale 0 to 100, 0 no effect, 100 complete control

Cc1nn(C)c(=O)c(-c2c(C)sc3ccc(Cl)cc23)c1O [Compound 104]
Plant response rating, Oat, Wild [1, 14]: 80 | Plant response rating, Oat, Wild [1, 15]: 90 | Plant response rating, Oat, Wild [1, 16]: 90 | Plant response rating, Kochia (kochia (Kochia scoparia); [14]): 95 | Plant response rating, Kochia (kochia (Kochia scoparia); [15]): 95 | Plant response rating, Kochia (kochia (Kochia scoparia); [16]): 100 | Plant response rating, Crabgrass, Large [2, 17]: 20 | Plant response rating, Crabgrass, Large [2, 18]: 35 | Plant response rating, Crabgrass, Large [2, 19]: 55 | Plant response rating, Crabgrass, Large [2, 20]: 40 | Plant response rating, Crabgrass, Large [2, 21]: 55 | Plant response rating, Crabgrass, Large [2, 22]: 55 | Crabgrass, Large plant response rating [2, 23]: 60 | Crabgrass, Large plant response rating [2, 24]: 30 | Plant response rating, Blackgrass [3, 17]: 15 | Plant response rating, Blackgrass [3, 18]: 50 | Plant response rating, Blackgrass [3, 19]: 55 | Plant response rating, Blackgrass [3, 20]: 5 | Plant response rating, Blackgrass [3, 21]: 15 | Plant response rating, Blackgrass [3, 22]: 30 | Blackgrass plant response rating [3, 23]: 60 | Blackgrass plant response rating [3, 24]: 35 | Plant response rating, Pigweed [4, 17]: 95 | Plant response rating, Pigweed [4, 18]: 100 | Plant response rating, Pigweed [4, 19]: 100 | Plant response rating, Pigweed [4, 20]: 100 | Plant response rating, Pigweed [4, 21]: 100 | Plant response rating, Pigweed [4, 22]: 100 | Pigweed plant response rating [4, 23]: 100 | Plant response rating, Oilseed Rape [5, 17]: 85 | Plant response rating, Oilseed Rape [5, 18]: 95 | Plant response rating, Oilseed Rape [5, 19]: 98 | Plant response rating, Oilseed Rape [5, 20]: 5 | Plant response rating, Oilseed Rape [5, 21]: 30 | Plant response rating, Oilseed Rape [5, 22]: 85 | Oilseed Rape plant response rating [5, 23]: 95 | Plant response rating, Ryegrass, Italian [6, 17]: 90 | Plant response rating, Ryegrass, Italian [6, 18]: 90 | Plant response rating, Ryegrass, Italian [6, 19]: 90 | Plant response rating, Ryegrass, Italian [6, 20]: 55 | Plant response rating, Ryegrass, Italian [6, 21]: 85 | Plant response rating, Ryegrass, Italian [6, 22]: 90 | Ryegrass, Italian plant response rating [6, 23]: 95 | Plant response rating, Johnsongrass [7, 17]: 10 | Plant response rating, Johnsongrass [7, 18]: 5 | Plant response rating, Johnsongrass [7, 19]: 5 | Plant response rating, Johnsongrass [7, 20]: 10 | Plant response rating, Johnsongrass [7, 21]: 20 | Plant response rating, Johnsongrass [7, 22]: 20 | Johnsongrass plant response rating [7, 23]: 30 | Plant response rating, Corn (corn (Zea mays); [17]): 5 | Plant response rating, Corn (corn (Zea mays); [18]): 50 | Plant response rating, Corn (corn (Zea mays); [19]): 30 | Plant response rating, Corn (corn (Zea mays); [20]): 5 | Plant response rating, Corn (corn (Zea mays); [21]): 0 | Plant response rating, Corn (corn (Zea mays); [22]): 15 | Corn plant response rating (corn (Zea mays); [23]): 10 | Corn plant response rating (corn (Zea mays); [24]): 80 | Plant response rating, Foxtail, Giant [8, 17]: 50 | Plant response rating, Foxtail, Giant [8, 18]: 75 | Plant response rating, Foxtail, Giant [8, 19]: 85 | Plant response rating, Foxtail, Giant [8, 20]: 75 | Plant response rating, Foxtail, Giant [8, 21]: 85 | Plant response rating, Foxtail, Giant [8, 22]: 75 | Foxtail, Giant plant response rating [8, 23]: 100 | Plant response rating, Waterhemp [9, 17]: 70 | Plant response rating, Waterhemp [9, 18]: 100 | Plant response rating, Waterhemp [9, 19]: 95 | Plant response rating, Waterhemp [9, 20]: 75 | Plant response rating, Waterhemp [9, 21]: 90 | Plant response rating, Waterhemp [9, 22]: 100 | Waterhemp plant response rating [9, 23]: 100 | Plant response rating, Lambsquarters [10, 17]: 90 | Plant response rating, Lambsquarters [10, 18]: 100 | Plant response rating, Lambsquarters [10, 19]: 100 | Plant response rating, Lambsquarters [10, 20]: 85 | Plant response rating, Lambsquarters [10, 21]: 85 | Plant response rating, Lambsquarters [10, 22]: 95 | Lambsquarters plant response rating [10, 23]: 95 | Plant response rating, Ragweed [11, 17]: 85 | Plant response rating, Ragweed [11, 18]: 98 | Plant response rating, Ragweed [11, 19]: 100 | Plant response rating, Ragweed [11, 20]: 85 | Plant response rating, Ragweed [11, 21]: 90 | Plant response rating, Ragweed [11, 22]: 95 | Ragweed plant response rating [11, 23]: 100 | Plant response rating, Morningglory [12, 17]: 98 | Plant response rating, Morningglory [12, 18]: 100 | Plant response rating, Morningglory [12, 19]: 100 | Plant response rating, Morningglory [12, 20]: 80 | Plant response rating, Morningglory [12, 21]: 95 | Plant response rating, Morningglory [12, 22]: 100 | Morningglory plant response rating [12, 23]: 98 | Plant response rating, Velvetleaf [13, 17]: 50 | Plant response rating, Velvetleaf [13, 18]: 98 | Plant response rating, Velvetleaf [13, 19]: 90 | Plant response rating, Velvetleaf [13, 20]: 40 | Plant response rating, Velvetleaf [13, 21]: 80 | Plant response rating, Velvetleaf [13, 22]: 90 | Velvetleaf plant response rating [13, 23]: 90 | Plant response rating, Soybean (soybean (Glycine max); [17]): 0 | Plant response rating, Soybean (soybean (Glycine max); [18]): 10 | Plant response rating, Soybean (soybean (Glycine max); [19]): 10 | Plant response rating, Soybean (soybean (Glycine max); [20]): 0 | Plant response rating, Soybean (soybean (Glycine max); [21]): 0 | Plant response rating, Soybean (soybean (Glycine max); [22]): 0 | Soybean plant response rating (soybean (Glycine max); [23]): 0

Reference: US10597388B2, “Pyridazinone herbicides” (FMC CORPORATION, priority 2014, dated 2020)
